Measurements published in US11117899B2, “[1,2,4]triazolo[1,5-c]pyrimidine derivative as A2A receptor inhibitor” (MEDSHINE DISCOVERY INC., priority 2017, dated 2021).

target: T1, Human adenosine A2A receptor (Homo sapiens, UniProt P29274); assay: Human adenosine A2A receptor calcium flux assay; type: cell-based; conditions: A2A stable CHO cell strain, antagonist mode against agonist NECA at EC80, FLIPR Fluo-4
T1 construct: host or cells: CHO
Protocol: Human adenosine A2A receptor calcium flux assay
A2A stable cell strain was constructed by Shanghai WuXi PharmaTech, and the host cell was CHO.
Fluo-4 Direct Kit (Invitrogen, Cat. No. F10471). After the fluorescent detection reagent (specifically binding to calcium ions and causing an increase in fluorescence signal) in the kit was incubated with the cells for a suitable period of time, the compound was added to stimulate the cells to cause changes in intracellular calcium flux, thereby causing changes in the fluorescent signal, which can reflect the strength of the agonistic or inhibitory activity of the compound.
F12+10% fetal bovine serum+geneticin 300 ug/ml+blasticidin 2 ug/ml Compound dilution buffer:
Hanks Balanced Salt Buffer (Invitrogen)+20 mM HEPES, configured before each use
The test compounds were dissolved in DMSO to prepare 10 mM stock solutions. The test compounds were diluted to 0.2 mM with DMSO, and the reference compound CGS-15943 was diluted to 0.015 mM with DMSO. Next, 10 points of three-fold serial dilutions were made with ECHO. 900 nl was transferred to the compound plate (Greiner-781280), and 30 ul of compound dilution buffer was added. The final starting concentration of the test compounds was 1 uM and CGS-15943 was 0.075 uM.
Cryopreserved A2A cells were resuscitated, and then resuspended in culture medium to 1×10^6 cells/ml. The suspension was seeded into 384-well polylysine-coated cell plates (Greiner-781946) at 20 μl/well and incubated overnight in a 5% CO2 incubator at 37° C.
The cell plate prepared the day before was taken out from the incubator, and 20 ul of 2× Fluo-4 Direct™ buffer was added to each well. The plate was incubated for 50 minutes in a 5% CO2 incubator at 37° C. and allowed to stand at room temperature for 10 minutes.
Dilution of agonist NECA: 10 points of three-fold serial dilutions were made with Echo for NECA from a starting concentration of 0.15 mM. 900 nL was then transferred to the corresponding compound plate; and then 30 μl of compound dilution buffer was added to the corresponding compound plate. The final starting concentration was 750 nM.
FLIPR instrument software was run. According to the programmed procedure, 10 ul of compound dilution buffer was added to the cell plate and the fluorescence signal was read. 10 ul of the agonist reference compound at the indicated concentration was then added to the cell plate and the fluorescent signal was read. After reading, the data was exported by the “Max-Min”, “Read 90 to Maximum allowed” method in the software, and the EC80 of the A2A cell line was calculated. The agonist was prepared at a concentration of 6× EC80. A 6× EC80 concentration of a reference compound agonist of the corresponding cells was prepared with a buffer solution, and added at 30 ul/well to the corresponding compound plate for use.
FLIPR instrument software was run. According to the programmed procedure, 10 μl of the test compounds and reference compound at an indicated concentration was added to the cell plate and the fluorescence signal was read. 10 ul of the reference compound agonist at a concentration of 6× EC80 was then added to the cell plate and the fluorescent signal was read. For the agonist detection of the compounds, the data was exported by the “Max-Min”, “Read 1 to 90” method in the software. For the antagonist detection of the compound, the data was exported by the “Max-Min”, “Read 90 to Maximum allowed” method in the software. Data were analyzed by GraphPad Prism 5.0 and the IC50 values of the test compounds were calculated.

T1 sequence (P29274 whole entry): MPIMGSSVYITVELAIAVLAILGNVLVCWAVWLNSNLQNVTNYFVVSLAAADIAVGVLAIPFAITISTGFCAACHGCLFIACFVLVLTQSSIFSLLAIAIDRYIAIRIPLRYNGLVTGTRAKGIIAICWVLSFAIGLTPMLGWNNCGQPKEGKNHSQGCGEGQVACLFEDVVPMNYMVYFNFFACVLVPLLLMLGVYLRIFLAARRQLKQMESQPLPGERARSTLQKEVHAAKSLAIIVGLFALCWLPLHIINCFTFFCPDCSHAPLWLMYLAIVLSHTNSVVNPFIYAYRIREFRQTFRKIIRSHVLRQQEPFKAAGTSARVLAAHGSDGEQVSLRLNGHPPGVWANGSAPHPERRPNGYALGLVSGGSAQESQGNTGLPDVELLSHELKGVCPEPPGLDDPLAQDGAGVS

Structure (SMILES)	IC50
Cc1cc(-c2c(-c3cc(F)cc(F)c3)nc(N)n3ncnc23)cc(C(F)(F)F)n1 [Example A-5]	0.83 nM
COc1ccc(-c2nc(N)n3ncnc3c2-c2cc(C)nc(C(F)(F)F)c2)cc1 [Example A-6]	1.04 nM
Cc1cc(-c2c(-c3ccccn3)nc(N)n3ncnc23)cc(C(F)(F)F)n1 [Example A-7]	5.83 nM
Cc1cc(-c2c(-c3nccs3)nc(N)n3ncnc23)cc(C(F)(F)F)n1 [Example A-8]	23.9 nM
Cc1cc(-c2c(-c3ccc(Cl)cc3)nc(N)n3ncnc23)cc(C(F)(F)F)n1 [Example A-9]	1.13 nM
Cc1cc(-c2c(-c3ccc(O)cc3)nc(N)n3ncnc23)cc(C(F)(F)F)n1 [Example A-10]	0.88 nM
Cc1cc(-c2c(-c3ccncc3)nc(N)n3ncnc23)cc(C(F)(F)F)n1 [Example A-11]	3.87 nM
Cc1cc(-c2c(-c3cccnc3)nc(N)n3ncnc23)cc(C(F)(F)F)n1 [Example A-12]	11.4 nM
Cc1cc(-c2c(-c3ccc(C(F)(F)F)cc3)nc(N)n3ncnc23)cc(C(F)(F)F)n1 [Example A-13]	13.8 nM
Cc1cc(-c2c(-c3ccc(C#N)cc3)nc(N)n3ncnc23)cc(C(F)(F)F)n1 [Example A-14]	4.07 nM
Cc1cc(-c2c(-c3ccc(F)cc3)nc(N)n3ncnc23)cc(C(F)(F)F)n1 [Example A-15]	0.38 nM
Cc1cc(-c2c(-c3ccccc3F)nc(N)n3ncnc23)cc(C(F)(F)F)n1 [Example A-17]	1.3 nM
Cc1cc(-c2c(-c3ccco3)nc(N)n3ncnc23)cc(C(F)(F)F)n1 [Example A-19]	1.16 nM
Cc1cc(-c2c(-c3ccn(C)n3)nc(N)n3ncnc23)cc(C(F)(F)F)n1 [Example A-21]	0.9 nM
COc1cc(F)ccc1-c1nc(N)n2ncnc2c1-c1cc(C)nc(C(F)(F)F)c1 [Example A-23]	1.15 nM
COc1cc(F)ccc1-c1nc(N)n2ncnc2c1-c1cc(C)nc(C)c1 [Example A-24]	4.9 nM
Cc1cc(-c2c(-c3ccc(F)cc3F)nc(N)n3ncnc23)cc(C(F)(F)F)n1 [Example A-25]	1.14 nM
Cc1cc(-c2c(-c3ccc(F)cc3F)nc(N)n3ncnc23)cc(C)n1 [Example A-26]	0.87 nM
COc1ccccc1-c1nc(N)n2ncnc2c1-c1cc(C)nc(C)c1 [Example A-27]	4.38 nM
Cc1cc(-c2c(-c3ccccc3Cl)nc(N)n3ncnc23)cc(C)n1 [Example A-28]	37.4 nM
COc1cc(F)ccc1-c1nc(N)n2ncnc2c1-c1ccc2nn[nH]c2c1 [Example A-29]	37.2 nM
COc1ccccc1-c1nc(N)n2ncnc2c1-c1ccc2nn[nH]c2c1 [Example A-30]	20.4 nM
COc1ccccc1-c1nc(N)n2ncnc2c1-c1cc(Cl)nc(C(F)(F)F)c1 [Example A-31]	1.25 nM
COc1ccc(F)cc1-c1nc(N)n2ncnc2c1-c1cc(Cl)nc(C(F)(F)F)c1 [Example A-32]	1.21 nM
COc1c(F)cc(F)cc1-c1nc(N)n2ncnc2c1-c1cc(Cl)nc(C(F)(F)F)c1 [Example A-33]	15.3 nM

Results, then the compound that gave them:

IC50	Structure (SMILES)
7.82 nM	Cc1cc(-c2c(-c3ccccc3)nc(N)n3ncnc23)ccc1F [Example B-2]
9.92 nM	COc1ccc(-c2c(-c3ccccc3)nc(N)n3ncnc23)cc1Cl [Example B-3]
0.14 nM	Nc1nc(-c2ccccc2)c(-c2ccc(O)c(Cl)c2)c2ncnn12 [Example B-4]
0.17 nM	Nc1nc(-c2ccccc2)c(-c2ccc3[nH]ncc3c2)c2ncnn12 [Example B-7]
0.44 nM	Nc1nc(-c2ccccc2)c(-c2ccc3[nH]cnc3c2)c2ncnn12 [Example B-8]
48 nM	Nc1nc(-c2ccccc2)c(-c2ccc3c(c2)OCO3)c2ncnn12 [Example B-9]
1.98 nM	Nc1nc(-c2ccccc2)c(-c2ccc3[nH]nc(C(F)(F)F)c3c2)c2ncnn12 [Example B-10]
0.71 nM	Nc1nc(-c2ccccc2)c(-c2ccc(O)c(C(F)(F)F)c2)c2ncnn12 [Example B-13]
0.47 nM	Nc1nc(-c2ccccc2)c(-c2cc(C(F)(F)F)c3[nH]ncc3c2)c2ncnn12 [Example B-14]
0.44 nM	Nc1nc(-c2ccccc2)c(-c2cc(Cl)c(O)c(Cl)c2)c2ncnn12 [Example B-15]
0.14 nM	Nc1nc(-c2ccccc2)c(-c2ccc3ncccc3c2)c2ncnn12 [Example B-16]
1.89 nM	Nc1nc(-c2ccccc2)c(-c2ccc3c(c2)CCCN3)c2ncnn12 [Example B-17]
71.3 nM	Nc1nc(-c2ccccc2)c(-c2ccc3c(c2)CC(=O)N3)c2ncnn12 [Example B-20]
50.5 nM	Nc1nc(-c2ccccc2)c(-c2cc(C3CC3)nc(C(F)(F)F)c2)c2ncnn12 [Example B-23]
1.18 nM	CC1C=C(c2c(-c3ccccc3)nc(N)n3ncnc23)CC(C)O1 (stereo not shown) [Example B-24]
14.8 nM	Cc1cc(Cl)cc(-c2c(-c3ccccc3)nc(N)n3ncnc23)c1 [Example B-26]
0.28 nM	COc1cc(-c2c(-c3ccccc3)nc(N)n3ncnc23)ccn1 [Example B-27]
0.11 nM	COc1cc(-c2c(-c3ccccc3)nc(N)n3ncnc23)cc(C)n1 [Example B-29]

IC50	Structure (SMILES)
2.83 nM	CCc1cc(-c2c(-c3ccccc3)nc(N)n3ncnc23)cc(C(F)(F)F)n1 [Example B-32]
0.12 nM	Nc1nc(-c2ccccc2)c(-c2ccc3[nH]nnc3c2)c2ncnn12 [Example B-33]
19 nM	CC(C)c1cc(-c2c(-c3ccccc3)nc(N)n3ncnc23)cc(C(F)(F)F)n1 [Example B-34]
0.53 nM	Cc1cc(-c2c(-c3ccccc3)nc(N)n3nc(C)nc23)cc(C(F)(F)F)n1 [Example C-5]
0.74 nM	Cc1cc(-c2c(-c3ccccc3)nc(N)n3nc(C)nc23)cc(C)n1 [Example C-6]
1.35 nM	CCc1nc2c(-c3cc(C)nc(C(F)(F)F)c3)c(-c3ccccc3)nc(N)n2n1 [Example C-7]
0.45 nM	CCc1nc2c(-c3cc(C)nc(C)c3)c(-c3ccccc3)nc(N)n2n1 [Example C-8]
1.4 nM	Cc1cc(-c2c(-c3ccccc3)nc(N)n3nc(CC4CC4)nc23)cc(C)n1 [Example C-9]
3.68 nM	Cc1cc(-c2c(-c3ccccc3)nc(N)n3nc(C4CC4)nc23)cc(C(F)(F)F)n1 [Example C-10]
0.78 nM	Cc1cc(-c2c(-c3ccccc3)nc(N)n3nc(C4CC4)nc23)cc(C)n1 [Example C-11]
0.82 nM	Cc1cc(-c2c(-c3ccccc3)nc(N)n3nc(COCc4ccccc4)nc23)cc(C)n1 [Example C-12]
1.02 nM	COCc1nc2c(-c3cc(C)nc(C(F)(F)F)c3)c(-c3ccccc3)nc(N)n2n1 [Example C-13]
0.68 nM	COCc1nc2c(-c3cc(C)nc(C)c3)c(-c3ccccc3)nc(N)n2n1 [Example C-14]
20.4 nM	COc1ccccc1Cc1nc2c(-c3cc(C)nc(C(F)(F)F)c3)c(-c3ccccc3)nc(N)n2n1 [Example C-15]
1.77 nM	COc1ccccc1Cc1nc2c(-c3cc(C)nc(C)c3)c(-c3ccccc3)nc(N)n2n1 [Example C-16]
10.4 nM	Cc1cc(-c2c(-c3ccccc3)nc(N)n3nc(CC4CC4)nc23)cc(C(F)(F)F)n1 [Example C-17]
2.39 nM	Cc1cc(-c2c(-c3ccccc3)nc(N)n3nc(C(=O)NCc4ccc(F)cc4F)nc23)cc(C)n1 [Example C-18]
1.2 nM	Cc1cc(-c2c(-c3ccccc3)nc(N)n3nc(CNC4CC4)nc23)cc(C)n1 [Example C-20]
